Test results from US20250270213A1, “PI3Ka INHIBITORS” (Synnovation Therapeutics, Inc., priority 2022, published 2025).

Test system: T47D (PIK3CA H1047R) cells
Test: pS473 AKT assay with 2.5% FBS, T47D cells
Assay type: cell-based
Settings: Homo sapiens, pSer473 AKT, DMEM with 2.5% FBS, 2 h treatment, read-out: T47D_IC50
Procedure, shortened: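 T47D (PIK3CA H1047R) cells were switched to DMEM with 2.5% FBS and exposed to compounds for 2 h. After paraformaldehyde fixation, pSer473 AKT was detected by in-cell ELISA (rabbit primary, HRP anti-rabbit secondary, chemiluminescence); IC50 values were fitted from the concentration series.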

IC50	Compound
< 1 µM	CNC(=O)c1ccc(-c2nc(Cl)ccc2NC(C)c2cc(C)cc3c(=O)n(C)c4c(cnn4CCN4CCOCC4)c23)cc1F (stereo not shown) [Example 266, 4-(6-chloro-3-((1-(4,7-dimethyl-3-(2-morpholinoethyl)-5-oxo-4,5-dihydro-3H-pyrazolo[3,4-c]isoquinolin-9-yl)ethyl)amino)pyridin-2-yl)-2-fluoro-N-methylbenzamide]
< 1 µM	CNC(=O)c1ccc(-c2nc(Cl)ccc2NC(C)c2cc(C)cc3c(=O)n(C)c4c(cnn4CCN4CCN(C)CC4)c23)cc1F (stereo not shown) [Example 267, 4-(6-chloro-3-((1-(4,7-dimethyl-3-(2-(4-methylpiperazin-1-yl)ethyl)-5-oxo-4,5-dihydro-3H-pyrazolo[3,4-c]isoquinolin-9-yl)ethyl)amino)pyridin-2-yl)-2-fluoro-N-methylbenzamide]
< 1 µM	Cc1cc(C(C)Nc2ccc(Cl)nc2-c2ncn(C)n2)c2c(c1)c(=O)n(CC(F)F)c1c2cnn1CCN1CCn2ncnc2C1 (stereo not shown) [Example 268, 9-(1-((6-chloro-2-(1-methyl-1H-1,2,4-triazol-3-yl)pyridin-3-yl)amino)ethyl)-4-(2,2-difluoroethyl)-3-(2-(5,6-dihydro-[1,2,4]triazolo[1,5-a]pyrazin-7(8H)-yl)ethyl)-7-methyl-3,4-dihydro-5H-pyrazolo[3,4-c]isoquinolin-5-one]
< 1 µM	CCn1c(=O)c2cc(C)cc(C(C)Nc3ccc(Cl)nc3-c3ccc(C(=O)NC)nc3)c2c2cnn(-c3ccccn3)c21 (stereo not shown) [Example 271, 6-chloro-3-((1-(4-ethyl-7-methyl-5-oxo-3-(pyridin-2-yl)-4,5-dihydro-3H-pyrazolo[3,4-c]isoquinolin-9-yl)ethyl)amino)-N-methyl-[2,3′-bipyridine]-6′-carboxamide]
< 1 µM	Cc1cc(C(C)Nc2ccc(Cl)nc2-c2cnn(C)c2)c2c(c1)c(=O)n(C)c1c2cnn1-c1ccccn1 (stereo not shown) [Example 273, 9-(1-((6-chloro-2-(1-methyl-1H-pyrazol-4-yl)pyridin-3-yl)amino)ethyl)-4,7-dimethyl-3-(pyridin-2-yl)-3,4-dihydro-5H-pyrazolo[3,4-c]isoquinolin-5-one]
< 1 µM	Cc1cc(C(C)Nc2ccc(Cl)nc2-c2cnn(C)c2)c2c(c1)c(=O)n(C)c1c2cnn1Cc1ccccn1 (stereo not shown) [Example 275, 9-[1-[[6-Chloro-2-(1-methylpyrazol-4-yl)-3-pyridyl]amino]ethyl]-4,7-dimethyl-3-(2-pyridylmethyl)pyrazolo[3,4-c]isoquinolin-5-one]
< 1 µM	Cc1cc(C(C)Nc2ccc(Cl)nc2-c2ncn(C)n2)c2c(c1)c(=O)n(C)c1c2cnn1C1CCCN(C)C1 (stereo not shown) [Example 277, 9-[1-[[6-Chloro-2-(1-methyl-1,2,4-triazol-3-yl)-3-pyridyl]amino]ethyl]-4,7-dimethyl-3-(1-methyl-3-piperidyl)pyrazolo[3,4-c]isoquinolin-5-one]
< 1 µM	Cc1cc(C(C)Nc2ccc(Cl)nc2-c2ncn(C)n2)c2c(c1)c(=O)n(C)c1c2cnn1C1CCCN(CCO)C1 (stereo not shown) [Example 278, 9-[1-[[6-chloro-2-(1-methyl-1,2,4-triazol-3-yl)-3-pyridyl]amino]ethyl]-3-[1-(2-hydroxyethyl)-3-piperidyl]-4,7-dimethyl-pyrazolo[3,4-c]isoquinolin-5-one]
< 1 µM	Cc1cc(C(C)Nc2ccc(Cl)nc2-c2cnn(C)c2)c2c(c1)c(=O)n(C)c1c2cnn1C1CCCN(C)C1 (stereo not shown) [Example 279, 9-[1-[[6-chloro-2-(1-methylpyrazol-4-yl)-3-pyridyl]amino]ethyl]-4,7-dimethyl-3-(1-methyl-3-piperidyl)pyrazolo[3,4-c]isoquinolin-5-one]
< 1 µM	Cc1cc(C(C)Nc2ccc(Cl)nc2-c2cnn(C)c2)c2c(c1)c(=O)n(C)c1c2cnn1C1CCCN(CCO)C1 (stereo not shown) [Example 280, 9-[1-[[6-chloro-2-(1-methylpyrazol-4-yl)-3-pyridyl]amino]ethyl]-3-[1-(2-hydroxyethyl)-3-piperidyl]-4,7-dimethyl-pyrazolo[3,4-c]isoquinolin-5-one]
< 1 µM	COC(=O)N1CCCC(n2ncc3c4c(C(C)Nc5ccc(Cl)nc5-c5cnn(C)c5)cc(C)cc4c(=O)n(C)c32)C1 (stereo not shown) [Example 281, methyl 3-[9-[1-[[6-chloro-2-(1-methylpyrazol-4-yl)-3-pyridyl]amino]ethyl]-4,7-dimethyl-5-oxo-pyrazolo[3,4-c]isoquinolin-3-yl]piperidine-1-carboxylate]
< 1 µM	CNC(=O)c1ccc(-c2nc(Cl)ccc2OC(C)c2cc(C)cc3c(=O)n(C)c4c(cnn4C4CCN(C)CC4)c23)cn1 (stereo not shown) [Example 282, 5-[6-Chloro-3-[1-[4,7-dimethyl-3-(1-methyl-4-piperidyl)-5-oxo-pyrazolo[3,4-c]isoquinolin-9-yl]ethoxy]-2-pyridyl]-N-methyl-pyridine-2-carboxamide]
< 1 µM	Cc1cc(C(C)Nc2ccc(Cl)nc2-c2cnn(C)c2)c2c(c1)c(=O)n1c3c2cnn3C(CO)CC1 (stereo not shown) [Example 287, 10-(1-((6-chloro-2-(1-methyl-1H-pyrazol-4-yl)pyridin-3-yl)amino)ethyl)-3-(hydroxymethyl)-8-methyl-4,5-dihydro-3H,6H-2,2a,5a-triazaaceanthrylen-6-one]
< 1 µM	Cc1cc(C(C)Nc2ccc(Cl)nc2-c2ccc(=O)n(C)c2)c2c(c1)c(=O)n1c3c2cnn3C(CO)CC1 (stereo not shown) [Example 289, 10-(1-((6-chloro-1′-methyl-6′-oxo-1′,6′-dihydro-[2,3′-bipyridin]-3-yl)amino)ethyl)-3-(hydroxymethyl)-8-methyl-4,5-dihydro-3H,6H-2,2a,5a-triazaaceanthrylen-6-one]

More lines, now with the values behind:

Compound	IC50
CCn1c(=O)c2cc(C)cc(C(C)Nc3ccc(Cl)nc3-c3ncn(C)n3)c2c2cnn(-c3ccccn3)c21 (stereo not shown) [Example 269, 9-[1-[[6-Chloro-2-(1-methyl-1,2,4-triazol-3-yl)-3-pyridyl]amino]ethyl]-4-ethyl-7-methyl-3-(2-pyridyl)pyrazolo[3,4-c]isoquinolin-5-one]	< 1 µM
CCn1c(=O)c2cc(C)cc(C(C)Nc3ccc(Cl)nc3N3CCOCC3)c2c2cnn(-c3ccccn3)c21 (stereo not shown) [Example 270, 9-(1-((6-chloro-2-morpholinopyridin-3-yl)amino)ethyl)-4-ethyl-7-methyl-3-(pyridin-2-yl)-3,4-dihydro-5H-pyrazolo[3,4-c]isoquinolin-5-one]	< 1 µM
Cc1cc(C(C)Nc2ccc(Cl)nc2-c2noc(=O)[nH]2)c2c(c1)c(=O)n(C)c1c2cnn1-c1ccccn1 (stereo not shown) [Example 272, 3-(6-chloro-3-((1-(4,7-dimethyl-5-oxo-3-(pyridin-2-yl)-4,5-dihydro-3H-pyrazolo[3,4-c]isoquinolin-9-yl)ethyl)amino)pyridin-2-yl)-1,2,4-oxadiazol-5(4H)-one]	< 1 µM
CCn1c(=O)c2cc(C)cc(C(C)Nc3ccc(Cl)nc3-c3ncn(C)n3)c2c2cnn(-c3cccnc3)c21 (stereo not shown) [Example 274, 9-[1-[[6-Chloro-2-(1-methyl-1,2,4-triazol-3-yl)-3-pyridyl]amino]ethyl]-4-ethyl-7-methyl-3-(3-pyridyl)pyrazolo[3,4-c]isoquinolin-5-one]	< 1 µM
Cc1cc(C(C)Nc2ccc(Cl)nc2-c2noc(=O)[nH]2)c2c(c1)c(=O)n(C)c1c2cnn1Cc1ccccn1 (stereo not shown) [Example 276, 3-(6-Chloro-3-((1-(4,7-dimethyl-5-oxo-3-(pyridin-2-ylmethyl)-4,5-dihydro-3H-pyrazolo[3,4-c]isoquinolin-9-yl)ethyl)amino)pyridin-2-yl)-1,2,4-oxadiazol-5(4H)-one]	< 1 µM
CNC(=O)c1ccc(-c2nc(Cl)ccc2OC(C)c2cc(C)cc3c(=O)n(C)c4c(cnn4C4CCN(C(C)=O)CC4)c23)cn1 (stereo not shown) [Example 283, 5-[3-[1-[3-(1-Acetyl-4-piperidyl)-4,7-dimethyl-5-oxo-pyrazolo[3,4-c]isoquinolin-9-yl]ethoxy]-6-chloro-2-pyridyl]-N-methyl-pyridine-2-carboxamide]	< 1 µM
Cc1cc(C(C)Nc2ccc(Cl)nc2-c2ncn(C)n2)c2c(c1)c(=O)n1c3c2cnn3C(CO)CC1 (stereo not shown) [Example 284, 10-(1-((6-Chloro-2-(1-methyl-1H-1,2,4-triazol-3-yl)pyridin-3-yl)amino)ethyl)-3-(hydroxymethyl)-8-methyl-4,5-dihydro-3H,6H-2,2a,5a-triazaaceanthrylen-6-one]	< 1 µM
Cc1cc(C(C)Nc2ccc(Cl)nc2-c2nnn(C)n2)c2c(c1)c(=O)n1c3c2cnn3C(CO)CC1 (stereo not shown) [Example 285, 10-(1-((6-chloro-2-(2-methyl-2H-tetrazol-5-yl)pyridin-3-yl)amino)ethyl)-3-(hydroxymethyl)-8-methyl-4,5-dihydro-3H,6H-2,2a,5a-triazaaceanthrylen-6-one]	< 1 µM
Cc1cc(C(C)Nc2ccc(Cl)nc2-c2nnco2)c2c(c1)c(=O)n1c3c2cnn3C(CO)CC1 (stereo not shown) [Example 286, 10-(1-((6-chloro-2-(1,3,4-oxadiazol-2-yl)pyridin-3-yl)amino)ethyl)-3-(hydroxymethyl)-8-methyl-4,5-dihydro-3H,6H-2,2a,5a-triazaaceanthrylen-6-one]	< 1 µM
Cc1cc(C(C)Nc2ccc(Cl)nc2-c2c[nH]nc2C)c2c(c1)c(=O)n1c3c2cnn3C(CO)CC1 (stereo not shown) [Example 288, 10-(1-((6-chloro-2-(3-methyl-1H-pyrazol-4-yl)pyridin-3-yl)amino)ethyl)-3-(hydroxymethyl)-8-methyl-4,5-dihydro-3H,6H-2,2a,5a-triazaaceanthrylen-6-one]	< 1 µM
Cc1cc(C(C)Nc2ccc(Cl)nc2-c2ncn(C)n2)c2c(c1)c(=O)n1c3c2cnn3C(CN(C)C)CC1 (stereo not shown) [Example 290, 10-(1-((6-Chloro-2-(1-methyl-1H-1,2,4-triazol-3-yl)pyridin-3-yl)amino)ethyl)-3-((dimethylamino)methyl)-8-methyl-4,5-dihydro-3H,6H-2,2a,5a-triazaaceanthrylen-6-one]	< 1 µM
